Data from US20010053795A1, “Paradoxical pharmacology” (priority 2000, published 2001).

Tested on: spontaneously hypertensive rat (SHR)
Experiment: Blood pressure (tail-cuff) in spontaneously hypertensive rats after L-NAME infusion
Format: in vivo
Conditions: L-NAME 10 ml/kg/10 min for 10 min
Experimental: To determine a possible mechanism underlying the decrease in blood pressure after infusion of NE/E, L-NAME (N(omega)-nitro-L-arginine methyl ester), which is a nitric oxide synthase inhibitor, was infused at a rate of 10 ml/kg/10 min for a total 10 min. After infusion of the L-NAME, blood pressure was measured via the tail-cuff method. FIG. 3 illustrates the effect of the blood pressure after infusion of L-NAME.
Nitric oxide is tonically released by the activity of the constitutive endothelial and neuronal NO synthases (NOS). Nitric oxide is vasodilatory, and tonically produced NO maintains low blood pressure. During exercise, there is an increase in norepinephrine and an increase in nitric oxide production. […] The increase in production of nitric oxide is due to an activation of nitric oxide synthase, which in turn increase the levels of nitric oxide.

For `COC(=O)[C@@H](N)CCCNC(=N)N[N+](=O)[O-]` [L-NAME, N(omega)-nitro-L-arginine methyl ester], the “effect on blood pressure after L-NAME infusion” value (SHR treated with NE/E for 28 days) was “increase in blood pressure” and the “effect on blood pressure after L-NAME infusion” value (SHR treated with vehicle for 28 days (controls)) was “further decrease in the blood pressure”.
